Assay results from US20190030053A1, “COMPOSITION FOR INCREASING EXPRESSION OF PGC-1alpha” (BENEBIOSIS CO., LTD., priority 2016, published 2019).

How the values were obtained:
[1] = system: PGC-1α and related genes; experiment: Gene expression in brain and hippocampus of Alzheimer's disease models; assay type: in vivo, mouse; conditions: 3×Tg mice, oral 0.1 mg/kg/day, 10 weeks
From the text: In order to investigate the changes in gene expression and cognitive ability by the treatment with SL (3′-SL & 6′-SL) compositions in Alzheimer's brain disease models, 6-week-old mice were purchased from Central Lab Animal (Korea). Water was freely accessible, and a commercially available pellet feed (Dooyeul Biotech, Korea) was given for two weeks. At 8 weeks of age, the mice were divided into three groups (composed of eight mice for each group): Eight 8-week-old male c57/BL6 mice (normal mice; initial body weight, average 35.6±3.3 g) treated with a normal diet were used for a control group. […]
(§1) Sialyllactose or DW was orally administered daily. […] The dietary intake and body weight change were measured every 5 days. […]
The gene expression changes by the treatment with SL (3′-SL & 6′-SL) compositions were quantitatively compared in two main organs (brain and hippocampus) associated with bran diseases. […] RNA was extracted by TRIzol agent (Invitrogen). cDNA was synthesized by using RNA, which has been extracted as above and quantified, and a reverse transcription system (Promega, USA). The expression patterns of PGC-1α and related genes were measured by using pre-designed primers and probes (Applied Biosystems; PGC-1α, Mm00447181_m1, GAPDH, and Mm99999915_q1) for the synthesized cDNA and analysis targets (Fndc5, PGC-1α, Erra, UCP1, BDNF, SOD2, and GPX1). […]

[2] = system: PGC-1α and related genes; experiment: Gene expression in brain and hippocampus of Parkinson's disease models; assay type: in vivo, rat; conditions: 6-OHDA SD rats, oral 0.1 mg/kg/day
From the text: In order to investigate the changes in gene expression and behavior improvement by the treatment with SL (3′-SL & 6′-SL) compositions in Parkinson's brain disease models, 13-week-old normal SD rats and Parkinson's brain disease models were purchased from Central Lab Animal (Korea). Water was freely accessible, and a commercially available pellet feed (Dooyeul Biotech, Korea) was given for one week. At 14 weeks of age, the SD rats were divided into four groups (composed of 8 animals per group): Eight 14-week-old male SD rats (normal rats; initial body weight, average 355.6±32.3 g) treated with a normal diet were used for a control group. […]
as §1
The gene expression changes by the treatment with SL (3′-SL & 6′-SL) compositions were quantitatively compared in two main organs (brain and hippocampus) associated with bran diseases. RNA was extracted by TRIzol agent (Invitrogen). cDNA was synthesized by using RNA, which has been extracted as above and quantified, and a reverse transcription system (Promega, USA). The expression patterns of PGC-1α and related genes were measured by using pre-designed primers and probes (Applied Biosystems; PGC-1α, Mm00447181_m1, GAPDH, and Mm99999915_q1) for the synthesized cDNA and analysis targets (Fndc5, PGC-1α, Erra, UCP1, BDNF, SOD2, and GPX1). […]

Row | Structure (SMILES) | expression levels of PGC-1α and related genes vs SL non-administration (Alzheimer's disease model) group [1] | expression levels of PGC-1α and related genes vs SL non-administration (Parkinson's disease model) group [2] | expression levels of PGC-1α and related genes vs normal control group [1] | expression levels of PGC-1α and related genes vs normal control group [2]
1 | CC(=O)N[C@H]1[C@H]([C@H](O)[C@H](O)CO)O[C@@](O[C@H]2[C@@H](O)[C@@H](CO)O[C@@H](O[C@H]3[C@H](O)[C@@H](O)C(O)O[C@@H]3CO)[C@@H]2O)(C(=O)O)C[C@@H]1O (stereo partly drawn) [3′-SL, α-NeuNAc-(2→3)-β-D-Gal-(1→4)-D-Glc] | relatively low compared with 6′-SL | relatively low compared with 6′-SL | – | –
2 | CC(=O)N[C@H]1[C@H]([C@H](O)[C@H](O)CO)O[C@@](OC[C@H]2O[C@@H](O[C@H]3[C@H](O)[C@@H](O)[C@H](O)O[C@@H]3CO)[C@H](O)[C@@H](O)[C@H]2O)(C(=O)O)C[C@@H]1O [6′-SL, α-NeuNAc-(2→6)-β-D-Gal-(1→4)-D-Glc] | very high | very high | somewhat lower | somewhat lower
